The target in the test is T1, human LPAR1 (Homo sapiens, UniProt Q92633).
T1 construct: expressed in transfected cells
T1 sequence (Q92633 whole entry): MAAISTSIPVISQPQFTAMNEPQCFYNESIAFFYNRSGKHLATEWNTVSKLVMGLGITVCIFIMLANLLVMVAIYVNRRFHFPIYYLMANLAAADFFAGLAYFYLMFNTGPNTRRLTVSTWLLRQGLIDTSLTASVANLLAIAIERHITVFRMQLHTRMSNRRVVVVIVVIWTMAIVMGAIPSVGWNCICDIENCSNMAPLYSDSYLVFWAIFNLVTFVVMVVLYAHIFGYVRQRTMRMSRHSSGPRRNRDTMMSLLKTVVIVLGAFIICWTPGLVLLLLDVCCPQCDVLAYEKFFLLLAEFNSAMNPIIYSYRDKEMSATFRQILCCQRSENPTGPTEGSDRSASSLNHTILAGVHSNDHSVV
Briefly: Test Example 1: antagonism against response of LPA-induced increase in intracellular Ca2+ concentration in RH7777 cells stably expressing human LPAR1. Type of test: cell-based. Conditions: RH7777 cells stably expressing human LPAR1; Fluo-4 fluorescence, FDSS6000; read-out: IC50 value (concentration producing 50% antagonism against response of LPA-induced increase in intracellular Ca2+ concentration) (converted). In a few lines: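 RH7777 cells stably transfected with human LPAR1 were preincubated with test compound 30 min at 37 °C in HBSS/20 mM HEPES/probenecid/0.05% BSA buffer, pH 7.4, then LPA-stimulated.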
For `CCOc1cc([C@@H](C)N(CCC(F)(F)Cc2ccccc2)C(=O)NC2(C(=O)O)CC(OC)C2)c(Cl)c(OCC)c1C(C)=O` (some centres unmarked) [Example 5-42], the IC50 was 7.45 nM.

With `CCOc1cc([C@@H](C)N(CCC(F)(F)Cc2ccccc2)C(=O)NC2(C(=O)O)CCOCC2)c(Cl)c(OCC)c1C(C)=O` [Example 5-43], the IC50 is 22.1 nM.

`CCOc1cc(C(C)N(CCCCc2ccccc2)C(=O)NC2(C(=O)O)CC2)c(Cl)c(OCC)c1C(C)=O` (centres unmarked) [Example 5-44]: the IC50 is 3.38 nM.

In the case of `CCOc1cc(C(C)N(CCCCc2ccccc2)C(=O)NC2CC(C(=O)O)C2)c(Cl)c(OCC)c1C(C)=O` (centres unmarked) [Example 5-45], the IC50 is 32.9 nM.

In the case of `CCOc1cc([C@@H](C)N(CCCCc2ccccc2)C(=O)NC2(C(=O)O)CC(F)(F)C2)c(Cl)c(OCC)c1C(C)=O` [Example 5-46], the IC50 was 1.36 nM.

For the molecule `CCOc1cc([C@@H](C)N(CCCCc2ccccc2)C(=O)NC2(C(=O)O)CC(OC)C2)c(Cl)c(OCC)c1C(C)=O` (some centres unmarked) [Example 5-47], the IC50 is 2.1 nM.

Regarding `CCOc1cc([C@@H](C)N(CCCCc2ccccc2)C(=O)NC2(C(=O)O)CC(OC)C2)c(Cl)c(OCC)c1C(C)=O` (some centres unmarked) [Example 5-48], the IC50 is 3.77 nM.

Take `CCOc1cc([C@@H](C)N(CCCCc2ccccc2)C(=O)N[C@]2(C(=O)O)C[C@H](OC)C2)c(Cl)c(OCC)c1C(C)=O` [Example 5-49]: the IC50 was 3.88 nM.

`CCOc1cc(C(C)N(CCCCc2ccccc2)C(=O)NC2(C(=O)O)CC(OCC)C2)c(Cl)c(OCC)c1C(C)=O` (centres unmarked) [Example 5-50]: the IC50 is 3.1 nM.

In the case of `CCOc1cc([C@@H](C)N(CCCCc2ccccc2)C(=O)NC2(C(=O)O)CCOCC2)c(Cl)c(OCC)c1C(C)=O` [Example 5-51], the IC50 was 2.56 nM.

Regarding `CCOc1cc([C@@H](C)N(CCO[C@@H](C)c2ccccc2)C(=O)N[C@]2(C(=O)O)C[C@H](OCC)C2)c(Cl)c(OCC)c1C(C)O` (some centres unmarked) [Example 5-63], the IC50 was 8.05 nM.

As to `CCOc1cc([C@@H](C)N(CCC(F)(F)Cc2ccccc2)C(=O)NC2(C(=O)O)CCOCC2)c(Cl)c(OCC)c1C(C)O` (stereo partly drawn) [Example 5-67, 4-{[{(1R)-1-[2-Chloro-3,5-Diethoxy-4-(1-Hydroxyethyl)Phenyl]Ethyl}(3,3-Difluoro-4-Phenylbutyl) Carbamoyl]Amino}Oxane-4-Carboxylic Acid], the IC50 is 43.4 nM.

As for `CCOc1cc([C@@H](C)N(CCC(F)(F)Cc2ccccc2)C(=O)NC2(C(=O)O)CCOCC2)c(Cl)c(OCC)c1C(C)O` (stereo partly drawn) [Example 5-68, 4-{[{(1R)-1-[2-Chloro-3,5-Diethoxy-4-(1-Hydroxyethyl)Phenyl]Ethyl}(3,3-Difluoro-4-Phenylbutyl) Carbamoyl]Amino}Oxane-4-Carboxylic Acid], the IC50 is 31 nM.

On to `CCOc1cc([C@@H](C)N(CCO[C@@H](C)c2ccccc2)C(=O)NC2(C(=O)O)CC(OC)C2)c(C)c(OCC)c1C(C)=O` (some centres unmarked) [Example 5-71], for which the IC50 was 2.51 nM.

Consider `CCOc1cc([C@@H](C)N(CCO[C@@H](C)c2ccccc2)C(=O)N[C@]2(C(=O)O)C[C@H](OC)C2)c(C)c(OCC)c1C(C)=O` [Example 5-72], for which the IC50 was 3.62 nM.

`CCOc1cc([C@@H](C)N(CCOCc2ccccc2)C(=O)NC2(C(=O)O)CC(OC)C2)c(C)c(OCC)c1C(C)=O` (some centres unmarked) [Example 5-73]: the IC50 was 1.42 nM.

For `CCOc1cc([C@@H](C)N(CCOCc2ccccc2)C(=O)N[C@]2(C(=O)O)C[C@H](OC)C2)c(C)c(OCC)c1C(C)=O` [Example 5-74], the IC50 is 1.93 nM.

Turning to `CCOc1cc([C@@H](C)N(CCO[C@@H](C)c2ccccc2)C(=O)NC2(C(=O)O)CC2)c(C)c(OCC)c1C` [Example 5-75], the IC50 was 4.74 nM.

Consider `CCOc1cc([C@@H](C)N(CCC(F)(F)Cc2ccccc2)C(=O)NC2(C(=O)O)CC(OC)C2)c(C)c(OCC)c1C` (some centres unmarked) [Example 5-77], for which the IC50 is 14 nM.

With `CCOc1cc([C@@H](C)N(CCOCc2ccccc2)C(=O)NC2(C(=O)O)CC(OC)C2)c(C)c(OCC)c1C` (some centres unmarked) [Example 5-78], the IC50 was 1.05 nM.

As for `CCOc1cc([C@@H](C)N(CCO[C@@H](C)c2ccccc2)C(=O)N[C@]2(C(=O)O)C[C@@H](OC)C2)c(C)c(OCC)c1C` [Example 5-79], the IC50 was 1.21 nM.

With `CCOc1cc([C@@H](C)N(CCC(F)(F)Cc2ccccc2)C(=O)N[C@]2(C(=O)O)C[C@@H](OCC)C2)c(C)c(OCC)c1C` [Example 5-80], the IC50 was 43.5 nM.

For `CCOc1cc([C@@H](C)N(CCOCc2ccccc2)C(=O)N[C@]2(C(=O)O)C[C@@H](OCC)C2)c(C)c(OCC)c1C` [Example 5-81], the IC50 was 1.07 nM.

With `CCOc1cc([C@@H](C)N(CCO[C@@H](C)c2ccccc2)C(=O)N[C@]2(C(=O)O)C[C@@H](OCC)C2)c(C)c(OCC)c1C` [Example 5-82, trans-1-[([(1R)-1-(3,5-diethoxy-2,4-dimethylphenyl)ethyl]{2-[(1S)-1-phenylethoxy]ethyl}carbamoyl)amino]-3-ethoxycyclobutane-1-carboxylic acid], the IC50 is 1.75 nM.

As to `CCOc1cc(C(C)N(CCCCc2ccccc2)C(=O)NC2(C(=O)O)CC(F)(F)C2)c(F)c(OCC)c1C` (centres unmarked) [Example 5-83], the IC50 was 3.36 nM.

As for `CCOc1cc(C(C)N(CCCCc2ccccc2)C(=O)NC2(C(=O)O)CC(F)(F)C2)c(Cl)c(OCC)c1C` (centres unmarked) [Example 5-84], the IC50 is 3.36 nM.

As for `CCOc1cc(OCC)nc(C(C)N(CCCCc2ccccc2)C(=O)NC2(C(=O)O)CC(F)(F)C2)c1` (centres unmarked) [Example 5-85, 1-({[1-(4,6-Diethoxypyridin-2-Yl)Ethyl](4-Phenylbutyl) Carbamoyl}Amino)-3,3-Difluorocyclobutane-1-Carboxylic Acid], the IC50 is 5.12 nM.

With `CCOc1cc(C(C)N(CCCCc2ccccc2)C(=O)NC2(C(=O)O)CC(F)(F)C2)cc(OCC)n1` (centres unmarked) [Example 5-86], the IC50 was 11 nM.

On to `COc1cc(OC)nc(C(C)N(CCCCc2ccccc2)C(=O)NC2(C(=O)O)CC(F)(F)C2)n1` (centres unmarked) [Example 5-87], for which the IC50 was 195 nM.

Regarding `COc1cc(C(C)N(CCCCc2ccccc2)C(=O)NC2(C(=O)O)CC(F)(F)C2)nc(OC)n1` (centres unmarked) [Example 5-88], the IC50 was 43.1 nM.

For the molecule `CCOc1cncc(C(C)N(CCCCc2ccccc2)C(=O)NC2(C(=O)O)CC(F)(F)C2)c1` (centres unmarked) [Example 5-89], the IC50 is 55.3 nM.

Take `COc1cc(C(C)N(CCCCc2ccccc2)C(=O)NC2(C(=O)O)CC(F)(F)C2)cnc1C#N` (centres unmarked) [Example 5-90]: the IC50 was 143 nM.

Take `CC(c1ccc2c(c1)OCCO2)N(CCCCc1ccccc1)C(=O)NC1(C(=O)O)CC(F)(F)C1` (centres unmarked) [Example 5-91]: the IC50 was 711 nM.

Consider `CCOc1cc(C(C)N(CCCCc2ccccc2)C(=O)NC2(C(=O)O)CC(F)(F)C2)cc2c1CCO2` (centres unmarked) [Example 5-92], for which the IC50 is 23.1 nM.

For `CCOc1cc(C(C)N(CCCCc2ccccc2)C(=O)NC2(C(=O)O)CC(F)(F)C2)c2ccn(CC)c2c1` (centres unmarked) [Example 5-95], the IC50 was 7.22 nM.

On to `CCOc1cc(C(C)N(CCCCc2ccccc2)C(=O)NC2(C(=O)O)CC(F)(F)C2)c2c(c1)N(CC)CC2` (centres unmarked) [Example 5-97], for which the IC50 is 10.1 nM.

Turning to `CCOc1cc(C(C)N(CCCCc2ccccc2)C(=O)NC2(C(=O)O)CC(F)(F)C2)cc2c1cnn2CC` (centres unmarked) [Example 5-99, 1-({[1-(4-Ethoxy-1-Ethyl-1H-Indazol-6-Yl)Ethyl](4-Phenylbutyl) Carbamoyl}Amino)-3,3-Difluorocyclobutane-1-Carboxylic Acid], the IC50 was 5.6 nM.

For the molecule `CCNc1cc(C(C)N(CCCCc2ccccc2)C(=O)NC2(C(=O)O)CC(F)(F)C2)cc(OCC)c1C(C)=O` (centres unmarked) [Example 5-102], the IC50 is 7.35 nM.

In the case of `CCNc1cc(C(C)N(CCCCc2ccccc2)C(=O)NC2(C(=O)O)CCC2)cc(OCC)c1C(C)=O` (centres unmarked) [Example 5-103], the IC50 was 1.71 nM.

In the case of `CCNc1cc(C(C)N(CCCCc2ccccc2)C(=O)NC2(C(=O)O)Cc3ccccc3C2)cc(OCC)c1C(C)=O` (centres unmarked) [Example 5-104], the IC50 is 20.7 nM.

With `CCNc1cc(C(C)N(CCCCc2ccccc2)C(=O)NC2(C(=O)O)CCS(=O)(=O)CC2)cc(OCC)c1C(C)=O` (centres unmarked) [Example 5-105], the IC50 is 12.2 nM.

For `CCNc1cc([C@@H](C)N(CCCCc2ccccc2)C(=O)NC2(C(=O)O)CC(F)(F)C2)cc(OCC)c1C(C)=O` [Example 5-108], the IC50 is 1.51 nM.

In the case of `CCNc1cc([C@H](C)N(CCCCc2ccccc2)C(=O)NC2(C(=O)O)CC(F)(F)C2)cc(OCC)c1C(C)=O` [Example 5-109], the IC50 was 191 nM.

`CCNc1cc([C@@H](C)N(CCCCc2ccccc2)C(=O)NC2(C(=O)O)CCC2)cc(OCC)c1C(C)=O` [Example 5-110]: the IC50 is 1.78 nM.

Take `CCNc1cc([C@@H](C)N(CCCCc2ccccc2)C(=O)NC2(C(=O)O)CC(F)(F)C2)cc(O)c1C(C)=O` [Example 5-112]: the IC50 is 15.1 nM.

On to `CCNc1cc(C(C)N(CCCCc2ccccc2)C(=O)NC2(C(=O)O)CCC2)cc(OCC)c1C#N` (centres unmarked) [Example 5-113], for which the IC50 is 3.58 nM.

As to `CCNc1cc(C(C)N(CCCCc2ccccc2)C(=O)NC2(C(=O)O)CC(F)(F)C2)cc(OCC)c1C#N` (centres unmarked) [Example 5-114], the IC50 is 4.19 nM.

In the case of `CCNc1cc([C@@H](C)N(CCCCc2ccccc2)C(=O)NC2(C(=O)O)CC(F)(F)C2)cc(OCC)c1C#N` [Example 5-115], the IC50 is 2.34 nM.

For the molecule `O=C(NC1(C(=O)O)CC(F)(F)C1)N(CCCCc1ccccc1)C1CCc2c(Cl)cc(Cl)cc21` (centres unmarked) [Example 5-116, 1-{[(4,6-Dichloro-2,3-Dihydro-1H-Inden-1-Yl) (4-Phenylbutyl) Carbamoyl]Amino}-3,3-Difluorocyclobutane-1-Carboxylic Acid], the IC50 was 22.2 nM.

As to `O=C(NC1(C(=O)O)CC(F)(F)C1)N(CCCCc1ccccc1)C1COc2c(Cl)cc(Cl)cc21` (centres unmarked) [Example 5-117], the IC50 was 5.59 nM.

Values taken from US12338203B2 (TAISHO PHARMACEUTICAL CO., LTD., priority 2019, dated 2025).
